Measurements from patent US20180042874A1, “METHOD FOR TREATING OSTEOPOROSIS” (China Medical University, priority 2016, published 2018).

Columns and labels:
RAW 264.7 cells = experiment: Cytotoxicity test (MTT colorimetric assay); type: cell-based
Source text: MTT (3-(4,5-dimethylthiazol-2-yl)-2,5-diphenyl tetrazolium bromide is yellow when dissolved in a phenol red-free medium. The yellow MTT solution is reduced by succinate dehydrogenase in mitochondria of living cells into purple insoluble formazan crystals, deposited in the cells generating blue formazan crystals. The amount of formazan crystals produced is proportional to the number of viable cells (succinate dehydrogenase in dead cells is degraded and unable to reduce MTT). Formazan crystals can be dissolved in acidic isopropanol or dimethyl sulfoxide (DMSO), and an enzyme linked immunosorbent assay detector can be used to measure the light absorption value, therefore, MTT can be used as a marker for cell survival rate.
Cytotoxicity test of the compound of formula I in RAW 264.7 cells was studied and detected by using the MTT colorimetric assay. […] After being cultured in an incubator at 37° C. for 4 hours, equivalent amount of cell culture solution by volume was added into dimethyl sulfoxide to dissolve MTT Formazan, 100 μl was respectively collected and placed in a 96 well-plate, and the light absorption value at 570 nm was determined by using an enzyme immunosorbent assay detector. The Cell survival rate (%) was calculated by using the following formula: (light absorption value of drug-treated cells)/light absorption value of culture solution-treated cells)×100%.
Firstly, we would like to know whether the compound of formula I were toxic to RAW 264.7 cells, and concentrations appropriate for subsequent experiments were to be selected. After being treated with 0, 1, 5, 10, 20, 40, 80 μg/ml of the compound of formula I for 72 hours, detected with the MTT colorimetric assay. […] To confirm the selected concentrations of the compound of formula I would not produce cytotoxin in the subsequent experiments, 10 μg/ml, 20 μg/ml of the compound of formula I were respectively used for treatment of 3, 6, 9, 12 days, the culture solution was replaced with fresh ones of the same condition once every three days and then detected with the MTT colorimetric assay.

[1] = tested on: osteoclast differentiation induced by receptor activator of nuclear factor κB ligand in RAW 264.7 cells; experiment: Osteoclast differentiation test (tartrate-resistant acid phosphatase staining); type: cell-based, mouse
Source text: The present invention used monocyte/macrophage cell line RAW 264.7 from mouse as an experimental model of the osteoclast differentiation system. RAW 264.7 cells differentiated into osteoclasts in an environment containing receptor activator of nuclear factor κB ligand. RAW 264.7 was obtained from a tumor induced by Abelson murine leukemia virus and purchased from the American Type Culture Collection (ATCC; Rockville, Md.). To culture osteoclasts, RAW 264.7 cells were used, cultured in a 24-well plate, the number of cells in each well was 1×10^4 cell/ml and cultured in a medium containing 100 ng/ml of receptor activator of nuclear factor κB ligand or co-treated with different concentrations of the compound of formula I.
In order to simulate physiological functions of the bone, we simulated the in vivo environment and some hormones essential to differentiation were added. The hormone environment suitable for […] cells was simulated for osteoclast differentiation. […] Markers for osteoclast differentiation were evaluated by staining with tartrate-resistant acid phosphatase. […]
Osteoclast formation was detected by quantifying the staining positive rate of tartrate-resistant acid phosphatase (387-A, Sigma-Aldrich, St. Louis, Mo.). […]

[2] = Liver and kidney toxicity in ovariectomized osteoporosis rat model; type: in vivo, Sprague-Dawley (SD) female rats; settings: ovariectomized rats, compared to commercially available drugs
Description: Inducing osteoporosis animal models and experimental methods: • 1. 6-month old Sprague-Dawley (SD) female rats were purchased; • 2. These rats were divided into 7 groups, of which Group 1 was given pseudo-surgery, Group 2-7 underwent bilateral ovariectomies; • 3. […] Body weight and bone density were measured weekly, blood was drawn until the 118th day; • 5. Rats were then sacrificed to obtain kidneys, livers and rat tibia; • 6. Data were consolidated and processed. [table]

CNC(=O)N[C@]1(C)CCC[C@@]2(C)C3CC[C@@]4(C)C[C@]3(CCC21)CC4=O (single isomer, unassigned; ent-16) [compound of formula I, ent-16-oxobeyeran-19-N-methylureido]
cytotoxicity over time (MTT) (RAW 264.7 cells; 10 μg/ml, 3, 6, 9, 12 days): no cytotoxin was produced | concentration above which cytotoxic (decreased survival rate) (RAW 264.7 cells; 72 hours): higher than 40 μg/ml | IC50 (RAW 264.7 cells; Mus musculus, RAW264.7, 72 hours, 0-80 μg/ml, read-out: IC50 (cell survival rate, MTT)): ~40 µg/mL | osteoclast differentiation over time (TRAP-positive multinucleated cells) ([1]; 10 μg/ml co-treated with 100 ng/ml RANKL, 2, 4, 6 days): significant and inhibitory effect | level of osteoclast differentiation (TRAP-positive multinucleated cells) ([1]; 10 μg/ml co-treated with 100 ng/ml RANKL, 6 days): decrease in the level of osteoclast differentiation | cytotoxicity in kidney (blood urea nitrogen, plasma creatinine) [2]: less cytotoxicity in kidney than Zoledronic acid | cytotoxicity in liver (alanine aminotransferase) [2]: less cytotoxicity in liver than Proliaor
